For 20 compounds, IC50 and Ki results are on record in ChEMBL document CHEMBL1909046, “DrugMatrix in vitro pharmacology data”.

Molecules are shown by their SMILES.

In one assay the target is Histamine H2 receptor (Homo sapiens, UniProt P25021). Format: cell membranes, CHO-K1, Membrane. Note: in other assays of this panel Not Active means under 50% inhibition at 10 µM.
Another assay concerns the target Adenosine receptor A2a (Homo sapiens, UniProt P29274). The assay can be described thus: DRUGMATRIX: Adenosine A2A radioligand binding (ligand: […]). In kind it is cell membranes, HEK293, Membrane. To be noted: hek293; Not Active = under 50% inhibition at 10 µM.
Assay [1] addresses T1, Alpha-2A adrenergic receptor (Homo sapiens, UniProt P08913).
T1 sequence (P08913 whole entry): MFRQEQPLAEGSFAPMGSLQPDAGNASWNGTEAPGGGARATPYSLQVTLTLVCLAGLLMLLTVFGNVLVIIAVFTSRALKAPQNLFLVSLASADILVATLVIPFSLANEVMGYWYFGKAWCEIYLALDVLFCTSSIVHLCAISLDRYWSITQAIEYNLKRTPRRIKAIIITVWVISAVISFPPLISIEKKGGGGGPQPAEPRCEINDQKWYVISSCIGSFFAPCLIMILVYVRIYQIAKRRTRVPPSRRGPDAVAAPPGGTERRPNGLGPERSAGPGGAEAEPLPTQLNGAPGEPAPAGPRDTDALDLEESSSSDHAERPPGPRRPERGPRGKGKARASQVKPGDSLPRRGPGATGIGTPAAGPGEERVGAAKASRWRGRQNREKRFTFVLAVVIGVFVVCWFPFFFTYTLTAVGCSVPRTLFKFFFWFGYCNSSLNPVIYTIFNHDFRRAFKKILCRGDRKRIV
Format: cell membranes, Sf9, Membrane.

Assay [2] in a line: DRUGMATRIX: beta-Lactamase enzyme inhibition (substrate: Nitrocefin). On the set-up: species or system Bacillus cereus. To be noted: Not Active = under 50% inhibition at 10 µM.
The target in a further assay is Insulin receptor (Rattus norvegicus, UniProt P15127). Format: cell membranes, Wistar, Liver, Membrane. Note: in other assays of this panel Not Active means under 50% inhibition at 10 µM.
Chain of Insulin receptor (P15127 27-759 limits assumed): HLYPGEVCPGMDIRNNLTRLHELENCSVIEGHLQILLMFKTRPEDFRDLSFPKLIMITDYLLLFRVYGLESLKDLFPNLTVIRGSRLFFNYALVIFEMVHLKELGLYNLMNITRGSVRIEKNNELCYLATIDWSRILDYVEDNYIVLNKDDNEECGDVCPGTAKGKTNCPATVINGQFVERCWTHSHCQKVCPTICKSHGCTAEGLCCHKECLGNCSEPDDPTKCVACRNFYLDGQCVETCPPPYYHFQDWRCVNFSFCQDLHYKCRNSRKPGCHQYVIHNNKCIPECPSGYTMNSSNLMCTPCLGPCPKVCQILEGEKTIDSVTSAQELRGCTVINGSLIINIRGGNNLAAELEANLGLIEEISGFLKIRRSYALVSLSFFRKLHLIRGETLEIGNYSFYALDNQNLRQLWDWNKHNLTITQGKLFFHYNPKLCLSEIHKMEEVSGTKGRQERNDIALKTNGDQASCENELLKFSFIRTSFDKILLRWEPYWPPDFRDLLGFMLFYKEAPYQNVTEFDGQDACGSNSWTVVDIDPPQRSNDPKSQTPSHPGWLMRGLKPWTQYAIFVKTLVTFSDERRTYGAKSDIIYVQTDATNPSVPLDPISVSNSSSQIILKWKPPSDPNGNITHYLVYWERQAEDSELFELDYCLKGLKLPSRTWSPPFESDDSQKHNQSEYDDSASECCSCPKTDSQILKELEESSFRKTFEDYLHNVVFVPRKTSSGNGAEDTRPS
Chain of Insulin receptor (P15127 764-1383 limits assumed): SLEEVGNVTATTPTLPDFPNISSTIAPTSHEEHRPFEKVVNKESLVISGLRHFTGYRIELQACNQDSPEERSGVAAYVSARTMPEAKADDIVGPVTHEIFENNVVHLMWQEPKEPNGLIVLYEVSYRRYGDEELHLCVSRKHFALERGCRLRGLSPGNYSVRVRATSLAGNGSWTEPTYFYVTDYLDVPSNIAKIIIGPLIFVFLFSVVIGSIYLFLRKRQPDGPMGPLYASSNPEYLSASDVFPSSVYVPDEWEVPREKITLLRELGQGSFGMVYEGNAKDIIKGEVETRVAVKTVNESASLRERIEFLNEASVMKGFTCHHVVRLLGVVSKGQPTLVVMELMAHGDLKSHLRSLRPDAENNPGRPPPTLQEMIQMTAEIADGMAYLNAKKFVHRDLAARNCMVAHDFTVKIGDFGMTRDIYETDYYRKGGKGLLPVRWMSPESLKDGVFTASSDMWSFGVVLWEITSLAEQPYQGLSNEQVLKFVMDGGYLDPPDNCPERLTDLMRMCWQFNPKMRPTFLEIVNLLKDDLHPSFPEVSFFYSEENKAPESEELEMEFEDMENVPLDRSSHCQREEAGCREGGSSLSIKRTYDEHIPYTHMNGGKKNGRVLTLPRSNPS
Another assay concerns the target T2, Neutrophil elastase (Homo sapiens, UniProt P08246).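 Note: inhibition of neutrophil elastase enzyme activity, measured with a p-nitroanilide-linked peptide substrate; in other assays of this panel Not Active means under 50% inhibition at 10 µM.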
T2 sequence (P08246 whole entry): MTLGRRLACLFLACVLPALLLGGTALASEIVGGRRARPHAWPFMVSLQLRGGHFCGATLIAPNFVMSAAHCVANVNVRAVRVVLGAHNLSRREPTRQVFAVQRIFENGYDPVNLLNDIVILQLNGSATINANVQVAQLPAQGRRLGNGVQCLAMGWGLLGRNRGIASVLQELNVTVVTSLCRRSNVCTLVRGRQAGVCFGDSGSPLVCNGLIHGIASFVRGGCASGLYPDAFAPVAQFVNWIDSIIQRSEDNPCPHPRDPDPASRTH
In kind it is tissue-based.

Chain of Histamine H2 receptor (P25021 whole entry): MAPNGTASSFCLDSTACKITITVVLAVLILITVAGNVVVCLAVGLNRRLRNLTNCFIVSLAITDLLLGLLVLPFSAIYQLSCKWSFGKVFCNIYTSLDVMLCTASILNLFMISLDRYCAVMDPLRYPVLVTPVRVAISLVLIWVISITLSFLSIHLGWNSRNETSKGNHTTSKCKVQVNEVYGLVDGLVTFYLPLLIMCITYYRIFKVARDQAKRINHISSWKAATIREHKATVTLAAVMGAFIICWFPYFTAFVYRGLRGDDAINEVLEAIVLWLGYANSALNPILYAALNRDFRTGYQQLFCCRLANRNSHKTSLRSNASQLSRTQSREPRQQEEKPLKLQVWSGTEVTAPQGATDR
Chain of Adenosine receptor A2a (P29274 whole entry): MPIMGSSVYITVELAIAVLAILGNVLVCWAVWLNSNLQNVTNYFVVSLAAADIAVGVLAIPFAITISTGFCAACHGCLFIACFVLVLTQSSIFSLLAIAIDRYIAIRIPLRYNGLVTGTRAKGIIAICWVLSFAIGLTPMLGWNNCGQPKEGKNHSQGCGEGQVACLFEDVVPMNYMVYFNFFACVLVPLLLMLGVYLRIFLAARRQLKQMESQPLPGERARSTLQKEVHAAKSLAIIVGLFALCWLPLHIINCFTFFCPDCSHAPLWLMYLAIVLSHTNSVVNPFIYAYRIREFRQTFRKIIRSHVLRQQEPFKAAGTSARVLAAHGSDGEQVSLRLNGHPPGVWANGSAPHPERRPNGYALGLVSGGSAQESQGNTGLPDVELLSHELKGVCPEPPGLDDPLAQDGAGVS

One may read the IC50 as the point on the concentration scale where inhibition reaches its midpoint. The term Ki denotes a measure of affinity in units of concentration, obtained from inhibition or displacement. Turning to `CC[C@H](C)[C@H]1O[C@]2(C=C[C@@H]1C)C[C@@H]1C[C@@H](C/C=C(\C)[C@@H](O[C@H]3C[C@H](OC)[C@@H](O[C@H]4C[C@H](OC)[C@@H](O)[C@H](C)O4)[C@H](C)O3)[C@@H](C)/C=C/C=C3\CO[C@@H]4[C@H](O)C(C)=C[C@@H](C(=O)O1)[C@]34O)O2.CO[C@H]1C[C@H](O[C@H]2[C@H](C)O[C@@H](O[C@@H]3/C(C)=C/C[C@@H]4C[C@@H](C[C@]5(C=C[C@H](C)[C@@H](C(C)C)O5)O4)OC(=O)[C@@H]4C=C(C)[C@@H](O)[C@H]5OC/C(=C\C=C\[C@@H]3C)[C@]54O)C[C@@H]2OC)O[C@@H](C)[C@@H]1O` [ABAMECTIN], the IC50 entry (at Histamine H2 receptor (cho-k1); on Adenosine receptor A2a; in assay [1] (sf9); in assay [2]; on Insulin receptor; against Neutrophil elastase) was “Not Active” throughout. For the same compound, in assay [2], the Ki entry is “Not Active”.
As to `NCCCC(O)(P(=O)(O)O)P(=O)(O)O` [ALENDRONIC ACID], the IC50 entry (against Histamine H2 receptor (cho-k1); at Adenosine receptor A2a; in assay [1] (sf9); in assay [2]; against Insulin receptor; on Neutrophil elastase) was “Not Active” each time. For the same compound, the Ki entry in assay [2] is listed as “Not Active”.
Take `Cc1nnc2n1-c1ccc(Cl)cc1C(c1ccccc1)=NC2` [ALPRAZOLAM]: the IC50 result (against Histamine H2 receptor (cho-k1); at Adenosine receptor A2a; in assay [1] (sf9); in assay [2]; against Insulin receptor; against Neutrophil elastase) was “Not Active” throughout. Moreover, the Ki result in assay [2] was “Not Active”.
In the case of `CCC1(CCC(C)C)C(=O)NC(=O)NC1=O` [AMOBARBITAL], the IC50 result (at Histamine H2 receptor (cho-k1); at Adenosine receptor A2a; in assay [1] (sf9); in assay [2]; against Insulin receptor; on Neutrophil elastase) was “Not Active” each time. Also, in assay [2], the Ki entry was “Not Active”.
For `CC1(C)S[C@@H]2[C@H](NC(=O)[C@H](N)c3ccccc3)C(=O)N2[C@H]1C(=O)O` [AMPICILLIN], the IC50 result (on Histamine H2 receptor (cho-k1); on Adenosine receptor A2a; in assay [1] (sf9); in assay [2]; against Insulin receptor; on Neutrophil elastase) was “Not Active” in each case. The Ki result in assay [2] is on record as “Not Active”.
On to `COc1ccc(C2C(=O)c3ccccc3C2=O)cc1` [ANISINDIONE], for which the IC50 entry (on Histamine H2 receptor (cho-k1); at Adenosine receptor A2a; in assay [1] (sf9); in assay [2]; against Insulin receptor; against Neutrophil elastase) was “Not Active” in each case. Besides, the Ki result in assay [2] is given as “Not Active”.
With `O=C1O[C@H]([C@@H](O)CO)C(O)=C1O` [ASCORBIC ACID], the IC50 entry (against Histamine H2 receptor (cho-k1); on Adenosine receptor A2a; in assay [1] (sf9); in assay [2]; against Insulin receptor; on Neutrophil elastase) was “Not Active” each time. Besides, the Ki result in assay [2] is given as “Not Active”.
Turning to `CN1[C@@H]2CC[C@H]1C[C@@H](OC(=O)C(CO)c1ccccc1)C2` (some centres not stated) [ATROPINE], the IC50 entry (against Histamine H2 receptor (cho-k1); at Adenosine receptor A2a; in assay [1] (sf9); in assay [2]; at Insulin receptor; against Neutrophil elastase) was “Not Active” in each case. Further, the Ki result in assay [2] is on record as “Not Active”.
Take `CC(C(=O)O)c1ccc2oc(-c3ccc(Cl)cc3)nc2c1` (configuration not stated) [BENOXAPROFEN]: the IC50 entry (against Histamine H2 receptor (cho-k1); on Adenosine receptor A2a; in assay [1] (sf9); in assay [2]; against Insulin receptor; against Neutrophil elastase) was “Not Active” in each case. Also, the Ki entry in assay [2] is given as “Not Active”.
In the case of `COc1ccc2cc3[n+](cc2c1OC)CCc1cc2c(cc1-3)OCO2.[Cl-]` [BERBERINE CHLORIDE], the IC50 entry (against Histamine H2 receptor (cho-k1); at Adenosine receptor A2a; in assay [1] (sf9); in assay [2]; at Insulin receptor; against Neutrophil elastase) was “Not Active” throughout. Moreover, the Ki entry in assay [2] is “Not Active”.
For the compound `O=C(O)CCNC(=O)c1ccccc1` [BETAMIPRON], the concentration for half-maximal inhibition (IC50) entry (on Histamine H2 receptor (cho-k1); on Adenosine receptor A2a; in assay [1] (sf9); in assay [2]; at Insulin receptor; on Neutrophil elastase) was “Not Active” throughout. In assay [2], the Ki entry is given as “Not Active”.
As to `CC(=O)Oc1ccc(C(c2ccc(OC(C)=O)cc2)c2ccccn2)cc1` [BISACODYL], the IC50 entry (on Histamine H2 receptor (cho-k1); on Adenosine receptor A2a; in assay [1] (sf9); in assay [2]; on Insulin receptor; at Neutrophil elastase) was “Not Active” each time. The Ki entry in assay [2] is listed as “Not Active”.
In the case of `Cc1cc2c(OCC(CNC(C)(C)C)OC(=O)c3ccccc3)cccc2[nH]1` (configuration not stated) [BOPINDOLOL], the IC50 result (against Histamine H2 receptor (cho-k1); on Adenosine receptor A2a; in assay [1] (sf9); in assay [2]; against Insulin receptor; against Neutrophil elastase) was “Not Active” throughout. The Ki entry in assay [2] is reported as “Not Active”.
For `CN(C)[C@@H]1C(O)=C(C(N)=O)C(=O)[C@@]2(O)C(O)=C3C(=O)c4c(O)ccc(Cl)c4[C@@](C)(O)[C@H]3C[C@@H]12` [CHLORTETRACYCLINE], the IC50 result (on Histamine H2 receptor (cho-k1); on Adenosine receptor A2a; in assay [1] (sf9); in assay [2]; at Insulin receptor; against Neutrophil elastase) was “Not Active” throughout. The Ki result in assay [2] is given as “Not Active”.
Take `CCC(=O)O[C@]1(C(=O)CCl)[C@@H](C)C[C@H]2[C@@H]3CCC4=CC(=O)C=C[C@]4(C)[C@@]3(F)[C@@H](O)C[C@@]21C` [CLOBETASOL PROPIONATE]: the IC50 result (at Histamine H2 receptor (cho-k1); at Adenosine receptor A2a; in assay [1] (sf9); in assay [2]; against Insulin receptor; at Neutrophil elastase) was “Not Active” throughout. Further, the Ki entry in assay [2] is “Not Active”.
Turning to `O=C1CN=C(c2ccccc2Cl)c2cc([N+](=O)[O-])ccc2N1` [CLONAZEPAM], the IC50 entry (against Histamine H2 receptor (cho-k1); on Adenosine receptor A2a; in assay [1] (sf9); in assay [2]; at Insulin receptor; on Neutrophil elastase) was “Not Active” throughout. In addition, the Ki result in assay [2] is reported as “Not Active”.
For `Nc1ccn([C@@H]2O[C@H](CO)[C@@H](O)[C@@H]2O)c(=O)n1` [CYTARABINE], the IC50 result (at Histamine H2 receptor (cho-k1); on Adenosine receptor A2a; in assay [1] (sf9); in assay [2]; against Insulin receptor; against Neutrophil elastase) was “Not Active” in each case. In addition, in assay [2], the Ki result was “Not Active”.
Consider `C[C@@H]1C[C@H]2[C@@H]3CCC4=CC(=O)C=C[C@]4(C)[C@@]3(F)[C@@H](O)C[C@]2(C)[C@H]1C(=O)CO` [DESOXIMETASONE], for which the half-maximal inhibitory concentration (IC50) result (against Histamine H2 receptor (cho-k1); on Adenosine receptor A2a; in assay [1] (sf9); in assay [2]; against Insulin receptor; on Neutrophil elastase) was “Not Active” each time. Also, the Ki result in assay [2] is given as “Not Active”.
In the case of `C[C@@H]1C[C@H]2[C@@H]3CCC4=CC(=O)C=C[C@]4(C)[C@@]3(F)[C@@H](O)C[C@]2(C)[C@@]1(O)C(=O)CO` [DEXAMETHASONE], the IC50 entry (against Histamine H2 receptor (cho-k1); on Adenosine receptor A2a; in assay [1] (sf9); in assay [2]; against Insulin receptor; at Neutrophil elastase) was “Not Active” each time. The Ki entry in assay [2] is given as “Not Active”.
`CN(C)CC[C@@H](c1ccc(Cl)cc1)c1ccccn1` [DEXCHLORPHENIRAMINE]: the IC50 at Histamine H2 receptor (read-out: IC50) is 8.37 µM; at Adenosine receptor A2a, “Not Active”; in assay [1] (read-out: IC50), 20.3 µM; in assay [2], “Not Active”; against Insulin receptor, “Not Active”; at Neutrophil elastase, “Not Active”. Also, the Ki is 8.23 µM on Histamine H2 receptor (read-out: Ki), 7.62 µM in assay [1] (read-out: Ki) and “Not Active” in assay [2].
